Assay results taken from ChEMBL document CHEMBL2086350, “Structure-activity relationship and antitumor activity of thio-benzodiazepines as p53-MDM2 protein-protein interaction inhibitors” (Eur J Med Chem, 2012).

Experiments:
[1] = biological target: E3 ubiquitin-protein ligase Mdm2 (Homo sapiens, UniProt Q00987); assay: Inhibition of MDM2 binding domain assessed as inhibition of p53 binding to MDM2 after 1 hr by fluorescence polarization assay
[2] = system: A549; assay: Antiproliferative activity against human A549 cells expressing wild type p53 after 72 hrs by MTT assay; settings: A549, 72 h
[3] = system: SAOS-2; assay: Antiproliferative activity against human p53-deficient Saos2 cells after 72 hrs by MTT assay; settings: SAOS-2, 72 h
[4] = system: NCI-H1299; assay: Antiproliferative activity against human p53-deficient NCI-H1299 cells after 72 hrs by MTT assay; settings: NCI-H1299, 72 h
[5] = system: U2OS; assay: Antiproliferative activity against human U2OS cells expressing wild type p53 after 72 hrs by MTT assay

E3 ubiquitin-protein ligase Mdm2, sequence (Q00987 whole entry, the tested form may be a part): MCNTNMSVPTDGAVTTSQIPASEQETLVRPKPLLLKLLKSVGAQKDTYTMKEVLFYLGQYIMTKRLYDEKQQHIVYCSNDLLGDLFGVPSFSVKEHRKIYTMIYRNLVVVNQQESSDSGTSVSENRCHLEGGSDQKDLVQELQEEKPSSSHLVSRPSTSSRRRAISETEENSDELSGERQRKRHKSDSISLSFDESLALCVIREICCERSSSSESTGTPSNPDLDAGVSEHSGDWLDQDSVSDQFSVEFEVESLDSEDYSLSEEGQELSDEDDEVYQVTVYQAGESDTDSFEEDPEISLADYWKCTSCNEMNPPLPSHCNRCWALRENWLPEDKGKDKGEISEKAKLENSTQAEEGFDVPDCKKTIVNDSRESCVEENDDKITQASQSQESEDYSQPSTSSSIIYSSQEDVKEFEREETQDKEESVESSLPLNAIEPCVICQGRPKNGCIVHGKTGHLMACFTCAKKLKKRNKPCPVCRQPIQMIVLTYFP

Row | SMILES | Ki [1] [µM] | IC50 [2] [µM] | IC50 [3] [µM] | IC50 [4] [µM] | IC50 [5] [µM]
1 | COC(=O)C(c1ccc(Cl)cc1)N1C(=O)c2ccc(NCc3ccc(C(F)(F)F)cc3)cc2NC(=S)C1c1ccc(Cl)cc1 (centres undefined) | 6.7 | 25.7 | 25.3 | 42.6 | 15.9
2 | COC(=O)C(c1ccc(Cl)cc1)N1C(=O)c2ccc(Cl)cc2NC(=S)C1c1ccc(Cl)cc1 (centres undefined) | 1.37 | 37.2 | 11.1 | 16.5 | 12.1
3 | COC(=O)C(c1ccc(Cl)cc1)N1C(=O)c2cccc(Cl)c2NC(=S)C1c1ccc(Cl)cc1 (centres undefined) | > 100 | > 100 | 61.8 | > 100 | 88.5
4 | COC(=O)C(c1ccc(Cl)cc1)N1C(=O)c2cc(Cl)ccc2NC(=S)C1c1ccc(Cl)cc1 (centres undefined) | 0.721 | 18.7 | 8.91 | 24.7 | 3.5
5 | COC(=O)C(c1ccc(Cl)cc1)N1C(=O)c2ccc(F)cc2NC(=S)C1c1ccc(Cl)cc1 (centres undefined) | – | 8.44 | 6.59 | 16.5 | 12
6 | COC(=O)C(c1ccc(Cl)cc1)N1C(=O)c2cc(F)c(F)cc2NC(=S)C1c1ccc(Cl)cc1 (centres undefined) | > 100 | 11.3 | 3.84 | 5.73 | 2.61
7 | COC(=O)C(c1ccc(F)cc1)N1C(=O)c2ccc(Cl)cc2NC(=S)C1c1ccc(F)cc1 (centres undefined) | 1.72 | 25.6 | 12.7 | > 100 | 44.3
8 | COC(=O)C(c1ccc(F)cc1)N1C(=O)c2cc(Cl)ccc2NC(=S)C1c1ccc(Cl)cc1 (centres undefined) | – | 19.7 | 6.48 | 29.7 | 7.23
9 | COC(=O)C(c1ccc(Cl)cc1)N1C(=O)c2cccc(OC)c2NC(=S)C1c1ccc(Cl)cc1 (centres undefined) | 8.18 | > 100 | > 100 | > 100 | > 100
10 | COC(=O)C(c1ccc(Cl)cc1)N1C(=O)c2ccc(C(F)(F)F)cc2NC(=S)C1c1ccc(Cl)cc1 (centres undefined) | – | 26.9 | 6.78 | 11.1 | 5.69
11 | COC(=O)C(c1ccc(F)cc1)N1C(=O)c2ccc(C(F)(F)F)cc2NC(=S)C1c1ccc(Cl)cc1 (centres undefined) | 3.02 | 9.44 | 13.7 | 14 | 11.8
12 | COC(=O)C(c1ccc(Cl)cc1)N1C(=O)c2ccc(OC)cc2NC(=S)C1c1ccc(Cl)cc1 (centres undefined) | > 100 | > 100 | 20 | > 100 | 35.3
13 | COC(=O)C(c1ccc(Cl)cc1)N1C(=O)c2cccc(C)c2NC(=S)C1c1ccc(Cl)cc1 (centres undefined) | > 100 | > 100 | 19.1 | 73.3 | 27.8
14 | COC(=O)C(c1ccc(Cl)cc1)N1C(=O)c2cc(C)ccc2NC(=S)C1c1ccc(Cl)cc1 (centres undefined) | 37.7 | > 100 | 25.5 | 73.6 | 32.7
15 | COC(=O)C(c1ccc(Cl)cc1)N1C(=O)c2cc(F)ccc2NC(=S)C1c1ccc(Cl)cc1 (centres undefined) | – | 12.9 | 11.9 | 14.5 | 7.53
16 | COC(=O)C(c1ccc(F)cc1)N1C(=O)c2ccc(F)cc2NC(=S)C1c1ccc(Cl)cc1 (centres undefined) | 1.05 | 19.4 | 32.1 | 25 | 28
17 | COC(=O)C(c1ccc(Cl)cc1)N1C(=O)c2ccc(Br)cc2NC(=S)C1c1ccc(Cl)cc1 (centres undefined) | 3.98 | > 100 | 11 | 35.4 | 35.7
18 | COC(=O)C(c1ccc(Cl)cc1)N1C(=O)c2ccc(Cl)cc2NC(=S)C1c1ccc(C(F)(F)F)cc1 (centres undefined) | – | 23.7 | 9.23 | 39.5 | 27.4
19 | COC(=O)C(c1ccc(Cl)cc1)N1C(=O)c2ccc(Cl)cc2NC(=S)C1c1ccc(OC)cc1 (centres undefined) | 11.9 | > 100 | > 100 | > 100 | 33.9
20 | COC(=O)C(c1ccc(Cl)cc1)N1C(=O)c2ccc(Cl)cc2N=C(SC)C1c1ccc(Cl)cc1 (centres undefined) | > 100 | > 100 | > 100 | > 100 | 67.6
21 | CCOC(=O)CSC1=Nc2cc(OC)ccc2C(=O)N(C(C(=O)OC)c2ccc(Cl)cc2)C1c1ccc(Cl)cc1 (centres undefined) | 21.1 | > 100 | > 100 | > 100 | > 100
22 | COc1ccc(C2=N[C@@H](c3ccc(Cl)cc3)[C@@H](c3ccc(Cl)cc3)N2C(=O)N2CCNC(=O)C2)c(OC(C)C)c1 [NUTLIN-3] | – | 15 | 12.1 | 20.4 | 19.6
